Target: T1, human GPR40 (Homo sapiens, UniProt O14842)
T1 construct: expressed in transfected cells
Test: Inositol phosphate accumulation assay in FFAR1 (GPR40) CHOK1 clone
Format: cell-based
Details: GPR40 agonist activity; intracellular inositol phosphate release in CHOK1 cells stably expressing recombinant human GPR40; 1 h incubation at 37° C.
Experimental: The inositol phosphate accumulation assay was performed to characterise the GPR40 agonist activity of the compounds of the present invention.
The assay was carried out in accordance with the method substantially as described in Diabetes, 2008, 57(8):2211-2219 and PLoS One, 2011, 6(11):e27270.
A stable FFAR1 (GPR40) CHOK1 clone was used to determine the GPR40 agonist activity of the test compounds (compounds of the present invention synthesized in the above Examples). The stable FFAR1 (GPR40) CHOK1 clone expressing recombinant human GPR40 was generated according to the procedure described herein below.
Full-length human GPR40 cDNA (Accession Number: NM_005303) was cloned into mammalian expression vector (pReceiver) and was stably transfected into (Chinese Hamster Ovary) CHOK1 cells using Amaxa technology. 2 μg of pReceiver hGPR40 were transfected into 1×10^6 CHOK1 cells in 6 well plates. The cells were split into three 100 mm cell culture plates on the second day and geneticin (800 μg/ml) was added to the cell culture on the third day. The selection medium comprising Ham's F-12 K supplemented with FBS (10%) and geneticin (800 μg/ml) was changed every three days until colonies were formed. The colonies isolated were further purified (single cell cloning) after 14 days to obtain pure isogenic single cell homogenous population of cells expressing the GPR40 receptor protein on the cell surface. GPR40 receptor expression on cell surface was measured by flow cytometry. The in-house transgenic cell line (clone) created was labeled as FFAR1 (GPR40) CHOK1 clone.
FFAR1 (GPR40) CHOK1 cells were suspended in culture medium comprising Ham's F-12 K supplemented with FBS (10%) and geneticin (800 μg/ml). Cells were seeded at a density of 2×10^4 cells per well in a 384 well tissue culture plate and cultured overnight. The medium was discarded and the cells were further resuspended in a stimulation buffer comprising HEPES (10 mM), glucose (5.5 mM), CaCl2 (1 mM), NaCl (150 mM), KCl (4.2 mM), MgCl2 (0.5 mM) and LiCl (50 mM) having a pH of 7.6. The test compounds (representative compounds of Formula (I)) 10 mM stock were prepared in DMSO and subsequently log fold dilution of the test compounds were carried out in the stimulation buffer. Various concentrations of the test compounds and the standard DMSO solution were added to each well. The plates were further incubated at 37° C., 5% CO2 incubator for 1 h. The final concentration of the test compounds in the each well varied from 1 μM to 10 μM. The DMSO concentration in the assay was 0.1% or less. After incubation, lysis reagent and anti-Tb conjugate were added to each well. The intracellular Inositol Phosphate release and accumulation in the test compounds were measured by the binding ability of the anti-Tb conjugate with the inositol phosphate inherently produced in each well as compared with the inositol phosphate coupled to dye d2 added externally to each well. The plates were then read using Perkin Elmer (Envision) plate reader and the fluorescence signal was captured. The EC50 values for the test compounds were calculated from the non linear regression sigmoidal curve graphs plotted between the concentrations of the test compounds and the fluorescence intensity.

T1 sequence (O14842 whole entry): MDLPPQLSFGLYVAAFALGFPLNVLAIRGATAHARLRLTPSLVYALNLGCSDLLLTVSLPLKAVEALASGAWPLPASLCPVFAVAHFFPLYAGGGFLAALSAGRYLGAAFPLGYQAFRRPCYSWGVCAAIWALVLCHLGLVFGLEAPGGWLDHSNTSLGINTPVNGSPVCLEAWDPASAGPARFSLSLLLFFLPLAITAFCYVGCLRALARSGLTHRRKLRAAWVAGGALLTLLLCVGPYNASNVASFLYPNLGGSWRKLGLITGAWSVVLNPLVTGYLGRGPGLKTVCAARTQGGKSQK

`O=C(O)CC1(c2ccc(OCc3cccc(-c4ccc(OCC5CCS(=O)(=O)CC5)cc4Cl)c3)cc2)COC1` [Example 70, 2-(3-(4-((2′-Chloro-4′-((1,1-dioxidotetrahydro-2H-thiopyran-4-yl)methoxy)-[1,1′-biphenyl]-3-yl)methoxy)phenyl)oxetan-3-yl)acetic acid] and `O=C(O)CC1(c2ccc(OCc3cccc(-c4ccc(OCC5CCOCC5)cc4Cl)c3)cc2)COC1` [Example 72, 2-(3-(4-((2′-Chloro-4′-((tetrahydro-2H-pyran-4-yl)methoxy)-[1,1′-biphenyl]-3-yl)methoxy)phenyl)oxetan-3-yl)acetic acid] cannot be ordered by EC50: under 100 nM for the first, under 100 nM for the second.

Compared with `O=C(O)CC1(c2ccc(OCc3cccc(-c4ccc(OCC5CCC5)cc4)c3)cc2)COC1` [Example 75, 2-(3-(4-((4′-(Cyclobutylmethoxy)-[1,1′-biphenyl]-3-yl)methoxy)phenyl)oxetan-3-yl)acetic acid], `CSc1ccc(-c2cccc(COc3ccc(C4(CC(=O)O)COC4)cc3)c2)cc1` [Example 83, 2-(3-(4-((4′-(Methylthio)-[1,1′-biphenyl]-3-yl)methoxy)phenyl)oxetan-3-yl)acetic acid] is lower in EC50: over 500 nM for the first, 100 to 500 nM for the second.

First: Cc1cc(OCCCS(C)(=O)=O)ccc1-c1cccc(COc2ccc(C3(CC(=O)O)COC3)cc2)c1 [Example 77, 2-(3-(4-((2′-Methyl-4′-(3-(methylsulfonyl)propoxy)-[1,1′-biphenyl]-3-yl)methoxy)phenyl)oxetan-3-yl)acetic acid]
Second: COc1cc(-c2cccc(COc3ccc(C4(CC(=O)O)COC4)cc3)c2)ccc1OCCCS(C)(=O)=O [Example 81, 2-(3-(4-((3′-Methoxy-4′-(3-(methylsulfonyl)propoxy)-[1,1′-biphenyl]-3-yl)methoxy)phenyl)oxetan-3-yl)acetic acid]
The EC50 of the first is lower: under 100 nM for the first, over 500 nM for the second. The first is the more potent here.

Compared with `Cc1cc(-c2cccc(COc3ccc(C4(CC(=O)O)COC4)cc3)c2)cc(C)c1OCCCS(C)(=O)=O` [Example 79, 2-(3-(4-((3′,5′-Dimethyl-4′-(3-(methylsulfonyl)propoxy)-[1,1′-biphenyl]-3-yl)methoxy)phenyl)oxetan-3-yl)acetic acid], `CS(=O)(=O)CCCOc1ccc(-c2cccc(COc3ccc(C4(CC(=O)O)COC4)cc3)c2)cc1C(F)(F)F` [Example 87, 2-(3-(4-((4′-(3-(Methylsulfonyl)propoxy)-3′-(trifluoromethyl)-[1,1′-biphenyl]-3-yl)methoxy)phenyl)oxetan-3-yl)acetic acid] is higher in EC50: 100 to 500 nM for the first, over 500 nM for the second. The first is the more potent here.

Compared with `CCCCSc1ccc(-c2cccc(COc3ccc(C4(CC(=O)O)COC4)cc3)c2)cc1` [Example 85, 2-(3-(4-((4′-(Butylthio)-[1,1′-biphenyl]-3-yl)methoxy)phenyl)oxetan-3-yl)acetic acid], `CC(C)Sc1ccc(-c2cccc(COc3ccc(C4(CC(=O)O)COC4)cc3)c2)cc1` [Example 89, 2-(3-(4-((4′-(Isopropylthio)-[1,1′-biphenyl]-3-yl)methoxy)phenyl)oxetan-3-yl)acetic acid] is lower in EC50: over 500 nM for the first, 100 to 500 nM for the second. The second is the more potent here.

`Cc1cc(OCCCS(C)(=O)=O)cc(C)c1-c1cccc(COc2ccc(C3(CC(=O)O)CN(S(C)(=O)=O)C3)cc2)c1` [Example 94, 2-(3-(4-((2′,6′-Dimethyl-4′-(3-(methylsulfonyl)propoxy)-[1,1′-biphenyl]-3-yl)methoxy)phenyl)-1-(methylsulfonyl)azetidin-3-yl)acetic acid] and `CC(=O)N1CC(CC(=O)O)(c2ccc(OCc3cccc(-c4c(C)cc(OCCCS(C)(=O)=O)cc4C)c3)cc2)C1` [Example 96, 2-(1-Acetyl-3-(4-((2′,6′-dimethyl-4′-(3-(methylsulfonyl)propoxy)-[1,1′-biphenyl]-3-yl)methoxy)phenyl)azetidin-3-yl)acetic acid] cannot be ordered by EC50: over 500 nM for the first, over 500 nM for the second.

`O=C(O)CC1(c2ccc(OCc3cccc(-c4ccc(C(F)(F)F)cc4)c3)c(F)c2)COC1` [Example 98, 2-(3-(3-Fluoro-4-((4′-(trifluoromethyl)-[1,1′-biphenyl]-3-yl)methoxy)phenyl)oxetan-3-yl)acetic acid] and `COc1cncc(-c2cccc(COc3ccc(C4(CC(=O)O)COC4)cc3)c2)c1` [Example 106, 2-(3-(4-((3-(5-Methoxypyridin-3-yl)benzyl)oxy)phenyl)oxetan-3-yl)acetic acid] cannot be ordered by EC50: over 500 nM for the first, over 500 nM for the second.

Going from `O=C(O)CC1(c2ccc(OCc3cccc(F)c3)cc2)COC1` [Example 102, 2-(3-(4-((3-Fluorobenzyl)oxy)phenyl)oxetan-3-yl)acetic acid] to `O=C(O)CC1(c2ccc(OCc3cccc(-c4cnc(N5CCOCC5)nc4)c3)cc2)COC1` [Example 108, 2-(3-(4-((3-(2-Morpholinopyrimidin-5-yl)benzyl)oxy)phenyl)oxetan-3-yl)acetic acid], the EC50 falls from over 500 nM to under 100 nM.
